From patent publication US20250281424A1 (New York Blood Center, Inc, priority 2020, published 2025)

Experiments:
human PF4 = target: T1, human PF4 (Homo sapiens, UniProt P02776); test: Inhibition of PF4 tetramer formation (BS3 cross-linking, SDS-PAGE); assay type: biochemical; conditions: for inhibition at 5 µM: 5 μM inhibitor; for inhibition at 5 µM / inhibition at 10 µM / inhibition at 1 µM / inhibition at 3 µM: read-out: % inhibition of PF4 tetramer formation at single concentration of inhibitor; for inhibition at 10 µM: 10 μM inhibitor (column A); for IC50: read-out: IC50 of PF4 tetramer formation inhibition; for inhibition at 1 µM: 1 μM inhibitor; for inhibition at 3 µM: 3 μM inhibitor (column A)
T1 construct: PF4 is a 70 amino acid, lysine-rich 7.8 kDa platelet-specific protein; made in house; host or cells: Escherichia coli BL21DE3 pLysS (pT7-7) and/or Drosophila S2 cells
T1 sequence (P02776 32-101): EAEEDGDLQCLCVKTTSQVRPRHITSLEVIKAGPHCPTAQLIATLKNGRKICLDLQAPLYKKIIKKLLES
Outline: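 Recombinant human wild-type PF4 (E. coli-expressed, heparin-purified), 10 μg/ml in PBS, incubated with compound 15 min at 37° C or 60 min at room temperature, then cross-linked with 0.2 mM BS3 for 30 min at room temperature. Reducing 12% SDS-PAGE; bands quantified as % tetramer, trimer, dimer, monomer versus compound-free control.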

[1] = Mouse microsome stability; assay type: in vitro ADME; conditions: for half-life at 0.5 μM: Mouse microsomes, compound conc = 0.5 μM, n = 1, read-out: Mouse microsome stability Half life t1/2
Source text: (§1) Certain exemplified compounds were examined for ADMET (absorption, distribution, metabolism, excretion and toxicity) profiling using conventional assays with the results shown in the Tables 3A-3C below.

[2] = Human microsome stability; assay type: in vitro ADME
Source text: as §1

SMILES	inhibition at 5 µM (human PF4) [%]	inhibition at 10 µM (human PF4) [%]	IC50 (human PF4) [µM]	inhibition at 1 µM (human PF4) [%]	inhibition at 3 µM (human PF4) [%]	further results
O=C(c1ccc2c(c1)C(=O)C(C(=O)NCCc1ccccc1)C2=O)c1ccc2c(c1)C(=O)C(C(=O)NCCc1ccccc1)C2=O (stereo not drawn) [Example 20, 5,5′-carbonylbis(1,3-dioxo-indan-2-carboxylic acid (2-phenylethyl)-amide)]	83	92	5.75	–	–	half-life at 0.5 μM [1]: > 145 min; intrinsic clearance in mouse microsome assay ([1]; mouse microsomes): low intrinsic clearance; stability in mouse microsome assay ([1]; mouse microsomes): excellent stability; half-life at 0.5 μM ([2]; Human microsomes, compound conc = 0.5 μM, n = 1, read-out: Human microsome stability Half life t1/2): > 145 min; microsomal CLint at 0.5 μM ([2]; Human microsomes, compound conc = 0.5 μM, n = 1, read-out: Human microsome stability Intrinsic Clearance Clint (ml/min/mg protein)): < 9.5 mL/min/mg; intrinsic clearance in human microsome assay ([2]; human microsomes): low intrinsic clearance; stability in human microsome assay ([2]; human microsomes): excellent stability
Cc1ncc2n1-c1ccc(Cl)cc1C(c1ccccc1F)=NC2 [Midazolam, midazolam, reference compound]	–	–	–	–	–	half-life at 0.5 μM [1]: 5.3 min; Human microsome stability Half life t1/2 ([2]; Human microsomes, compound conc = 0.5 μM, n = 1): 4 min
CC(=O)C1C(=O)c2ccc(Oc3ccc4c(c3)C(=O)C(C(C)=O)C4=O)cc2C1=O (stereo not drawn) [Example 9, 5-(2-acetyl-2,3-dihydro-1,3-dioxo-1h-inden-6-yloxy)-2-acetyl-2,3-dihydro-1,3-dioxo-1h-indene]	–	–	52	–	–	–
O=C(c1ccc2c(c1)C(=O)C(C(=O)C1CCCCC1)C2=O)c1ccc2c(c1)C(=O)C(C(=O)C1CCCCC1)C2=O (stereo not drawn) [Example 287, 2-cyclohexanecarbonyl-5-(2-cyclohexanecarbonyl-1,3-dioxo-2,3-dihydro-1H-indene-5-carbonyl)-2,3-dihydro-1H-indene-1,3-dione]	–	–	3	5	31	–
O=C(c1ccc2c(c1)C(=O)C(C(=O)NCCOCC(F)(F)F)C2=O)c1ccc2c(c1)C(=O)C(C(=O)NCCOCC(F)(F)F)C2=O (stereo not drawn) [Example 67, 5,5′-carbonylbis(1,3-dioxo-n-(2-(2,2,2-trifluoroethoxy)ethyl)-2,3-dihydro-1h-indene-2-carboxamide)]	0	20	–	–	–	–
O=C(Cc1ccccc1)C1C(=O)c2ccc(S(=O)(=O)c3ccc4c(c3)C(=O)C(C(=O)Cc3ccccc3)C4=O)cc2C1=O (stereo not drawn) [Example 137, 5-{[1,3-dioxo-2-(2-phenylacetyl)-2,3-dihydro-1H-inden-5-yl]sulfonyl}-2-(2-phenylacetyl)-2,3-dihydro-1H-indene-1,3-dione]	80	85	6	–	–	–
O=C(Cc1cccc(F)c1F)C1C(=O)c2ccc(Oc3ccc4c(c3)C(=O)C(C(=O)Cc3cccc(F)c3F)C4=O)cc2C1=O (stereo not drawn) [Example 260, 2-[2-(2,3-difluorophenyl)acetyl]-5-({2-[2-(2,3-difluorophenyl)acetyl]-1,3-dioxo-2,3-dihydro-1H-inden-5-yl}oxy)-2,3-dihydro-1H-indene-1,3-dione]	–	–	–	11	46	–
CC(C)(C)OC(=O)NCCCC(=O)C1C(=O)c2ccc(Oc3ccc4c(c3)C(=O)C(C(=O)CCCNC(=O)OC(C)(C)C)C4=O)cc2C1=O (stereo not drawn) [Example 385, tert-butyl N-[4-(5-{[2-(4-{[(tert-butoxy)carbonyl]amino}butanoyl)-1,3-dioxo-2,3-dihydro-1H-inden-5-yl]oxy}-1,3-dioxo-2,3-dihydro-1H-inden-2-yl)-4-oxobutyl]carbamate]	–	–	–	29	59	–
CCOC(=O)C1(C(C)=O)C(=O)c2ccc(Oc3ccc4c(c3)C(=O)CC4=O)cc2C1=O (stereo not drawn) [Example 6, 2-acetyl-5-(1,3-dioxo-indan-5-yloxy)-1,3-dioxo-indan-2-carboxylic acid ethyl ester]	–	–	1.05	–	–	–
O=C(c1ccc2c(c1)C(=O)C(C(=O)NC1CCC1)C2=O)c1ccc2c(c1)C(=O)C(C(=O)NC1CCC1)C2=O (stereo not drawn) [Example 68, 5,5′-carbonylbis(n-cyclobutyl-1,3-dioxo-2,3-dihydro-1h-indene-2-carboxamide)]	45	86	1.54	–	–	–
CC(C)C[C@@H](N)C(=O)C1C(=O)c2ccc(Oc3ccc4c(c3)C(=O)C(C(=O)[C@H](N)CC(C)C)C4=O)cc2C1=O (stereo partly drawn) [Example 357, 2-[(2R)-2-amino-4-methylpentanoyl]-5-({2-[(2R)-2-amino-4-methylpentanoyl]-1,3-dioxo-2,3-dihydro-1H-inden-5-yl}oxy)-2,3-dihydro-1H-indene-1,3-dione]	–	–	1.35	39	74	–
COCCC(=O)C1C(=O)c2ccc(C(=O)c3ccc4c(c3)C(=O)C(C(=O)CCOC)C4=O)cc2C1=O (stereo not drawn) [Example 176, 2-(3-methoxypropanoyl)-5-[2-(3-methoxypropanoyl)-1,3-dioxo-2,3-dihydro-1H-indene-5-carbonyl]-2,3-dihydro-1H-indene-1,3-dione]	21	77	–	–	–	–
CC(C)OC(=O)N1CCC[C@H]1C(=O)C1C(=O)c2ccc(C(=O)c3ccc4c(c3)C(=O)C(C(=O)[C@@H]3CCCN3C(=O)OC(C)C)C4=O)cc2C1=O (stereo partly drawn) [Example 134, propan-2-yl (2S)-2-(5-{1,3-dioxo-2-[(2S)-1-[(propan-2-yloxy)carbonyl]pyrrolidine-2-carbonyl]-2,3-dihydro-1H-indene-5-carbonyl}-1,3-dioxo-2,3-dihydro-1H-indene-2-carbonyl)pyrrolidine-1-carboxylate]	–	–	1.1	–	–	–
CC(C)CCCC(=O)C1C(=O)c2ccc(C(=O)c3ccc4c(c3)C(=O)C(C(=O)CCCC(C)C)C4=O)cc2C1=O (stereo not drawn) [Example 189, 2-(5-methylhexanoyl)-5-[2-(5-methylhexanoyl)-1,3-dioxo-2,3-dihydro-1H-indene-5-carbonyl]-2,3-dihydro-1H-indene-1,3-dione]	62	71	–	–	–	–
CC(C)C[C@@H](N)C(=O)C1C(=O)c2ccc(C(=O)c3ccc4c(c3)C(=O)C(C(=O)[C@H](N)CC(C)C)C4=O)cc2C1=O (stereo partly drawn) [Example 354, 2-[(2R)-2-amino-4-methylpentanoyl]-5-{2-[(2R)-2-amino-4-methylpentanoyl]-1,3-dioxo-2,3-dihydro-1H-indene-5-carbonyl}-2,3-dihydro-1H-indene-1,3-dione]	–	–	–	26	32	–
O=C(c1ccc2c(c1)C(=O)C(C(=O)Cc1cccnc1)C2=O)c1ccc2c(c1)C(=O)C(C(=O)Cc1cccnc1)C2=O (stereo not drawn) [Example 238, 5-{1,3-dioxo-2-[2-(pyridin-3-yl)acetyl]-2,3-dihydro-1H-indene-5-carbonyl}-2-[2-(pyridin-3-yl)acetyl]-2,3-dihydro-1H-indene-1,3-dione]	–	–	–	7	100	–
CO[C@H](C)[C@H](N)C(=O)C1C(=O)c2ccc(C(=O)c3ccc4c(c3)C(=O)C(C(=O)[C@@H](N)[C@@H](C)OC)C4=O)cc2C1=O (stereo partly drawn) [Example 128, 2-[(2S,3R)-2-amino-3-methoxybutanoyl]-5-{2-[(2S,3R)-2-amino-3-methoxybutanoyl]-1,3-dioxo-2,3-dihydro-1H-indene-5-carbonyl}-2,3-dihydro-1H-indene-1,3-dione]	51	87	7.8	–	–	–
COCCOCCOCCNC(=O)C1C(=O)c2ccc(C(=O)c3ccc4c(c3)C(=O)C(C(=O)NCCOCCOCCOC)C4=O)cc2C1=O (stereo not drawn) [Example 388, N-{2-[2-(2-methoxyethoxy)ethoxy]ethyl}-5-[2-({2-[2-(2-methoxyethoxy)ethoxy]ethyl}carbamoyl)-1,3-dioxo-2,3-dihydro-1H-indene-5-carbonyl]-1,3-dioxo-2,3-dihydro-1H-indene-2-carboxamide]	–	–	–	23	31	–
O=C1CC(=O)c2cc(-c3ccc4c(c3)C(=O)CC4=O)ccc21 [Example 75, 1h,1′h,2h,2′h,3h,3′h-[5,5′-biindene]-1,1′,3,3′-tetrone]	54	85	–	–	–	–
O=C1c2ccc(S(=O)(=O)c3ccc4c(c3)C(=O)C(C(=O)C3CCCS3(=O)=O)C4=O)cc2C(=O)C1C(=O)C1CCCS1(=O)=O (stereo not drawn) [Example 372, 2-(5-{[2-(1,1-dioxo-1λ^6-thiolane-2-carbonyl)-1,3-dioxo-2,3-dihydro-1H-inden-5-yl]sulfonyl}-1,3-dioxo-2,3-dihydro-1H-indene-2-carbonyl)-1λ^6-thiolane-1,1-dione]	–	–	–	–	30	–
C[C@H](NC(=O)C1C(=O)c2ccc(C(=O)c3ccc4c(c3)C(=O)C(C(=O)N[C@@H](C)C(=O)O)C4=O)cc2C1=O)C(=O)O (stereo partly drawn) [Example 316, (2S)-2-{[5-(2-{[(1S)-1-carboxyethyl]carbamoyl}-1,3-dioxo-2,3-dihydro-1H-indene-5-carbonyl)-1,3-dioxo-2,3-dihydro-1H-inden-2-yl]formamido}propanoic acid]	–	–	–	25	50	–
CC(C)(C)OC(=O)N1CSC[C@H]1C(=O)C1C(=O)c2ccc(-c3ccc4c(c3)C(=O)C(C(=O)[C@@H]3CSCN3C(=O)OC(C)(C)C)C4=O)cc2C1=O (stereo partly drawn) [Example 210, tert-butyl (4R)-4-{2′-[(4R)-3-[(tert-butoxy)carbonyl]-1,3-thiazolidine-4-carbonyl]-1,1′,3,3′-tetraoxo-1H,1′H,2H,2′H,3H,3′H-[5,5′-biindene]-2-carbonyl}-1,3-thiazolidine-3-carboxylate]	62	94	~5	–	–	–
